# Data as given in PubChem BioAssay AID1607 (NINDS Approved Drug Screening Program, 2009).
# Inconclusive results are not listed.
# Tested on: cells expressing AR112-GFP, GFP fluorescence
# Assay: AR112GFP polyglutamine androgen receptor turnover promoters – cell-based, GFP fluorescence (AID 1607)
row,Structure (SMILES),EC50 [µM]
1,CCc1nc(N)nc(N)c1-c1ccc(Cl)cc1,3.75
2,COc1ccc2cc3[n+](cc2c1OC)CCc1cc2c(cc1-3)OCO2,3.12
3,CN(C)CCC=C1c2ccccc2C=Cc2ccccc21,3.12
4,Fc1ccc(C(c2ccc(F)cc2)N2CCN(C/C=C/c3ccccc3)CC2)cc1,3.75
5,CN(C)C(=O)C(CCN1CCC(O)(c2ccc(Cl)cc2)CC1)(c1ccccc1)c1ccccc1,3.75
6,CCC(C)[C@H]1O[C@]2(C=C[C@@H]1C)C[C@@H]1C[C@@H](C/C=C(\C)[C@@H](OC3C[C@H](OC)C(O[C@H]4C[C@H](OC)[C@@H](O)[C@H](C)O4)[C@H](C)O3)[C@@H](C)/C=C/C=C3\CO[C@@H]4[C@H](O)C(C)=C[C@@H](C(=O)O1)[C@]34O)O2 (stereo not given in full),3.75
7,O=c1cc(-c2ccccc2)oc2c(O)c(O)ccc12,2.5
8,CN1CCN(CCC=C2c3ccccc3Sc3ccc(S(=O)(=O)N(C)C)cc32)CC1,3.12
9,Clc1ccc(C(OCCN2CCCCC2)c2ccccc2)cc1 (stereo not given),3.75
10,CC(CN(C)C)CN1c2ccccc2Sc2ccccc21 (stereo not given),3.75
11,CC(CN(C)C)CN1c2ccccc2CCc2ccccc21 (stereo not given),3.75
12,COC(=O)[C@H]1[C@H]2C[C@@H]3c4[nH]c5cc(OC)ccc5c4CCN3C[C@H]2C[C@@H](OC(=O)c2cc(OC)c(OC)c(OC)c2)[C@@H]1OC,3.75
13,NCCc1cc(O)c(O)cc1O,3.12
14,CNCCCN1c2ccccc2CCc2ccccc21,3.12
15,CN1CCC[C@@H]1CCO[C@](C)(c1ccccc1)c1ccc(Cl)cc1,3.12
